Patent US4988723A, “Benzopyran derivatives and their use as anti-hypertensives” (Fujisawa Pharmaceutical Co., Ltd., priority 1988, dated 1991)

Experiments:
[1] = test system: normotensive rats (male Wistar strain); assay: Effect on normotensive rats (hypotensive activity, mean arterial pressure after intravenous dosing); assay type: in vivo, rat; settings: 1.0 mg/kg intravenously
Description: Male Wistar strain rats aged 10-11 weeks, weighing about 250 g were used after going unfed overnight. Under ether anesthesia, polyethylene cannula were inserted in the femoral artery for measuring blood pressure and in the femoral vein for injection of the test compound. About 2 hours after the operation, test compound was given intravenously. Blood pressure was measured at the femoral artery by means of a pressure transducer and recorded as electrically integrated values of mean arterial pressure.

[2] = test system: spontaneous hypertensive rats; assay: Effect on spontaneous hypertensive rats (hypotensive activity, mean blood pressure after oral dosing); assay type: in vivo, rat
Description: 14 to 17-week-old male spontaneous hypertensive rats with mean arterial blood pressure of about 150 mmHg, weighing 300-375 g, were used. The animals were cannulated in the left femoral artery and the mean blood pressure and heart rate were measured with a pressure-transducer. The drugs were given orally. The animals were deprived of food for about 18 hours before oral dosing. The test drugs were suspended in 0.5% methylcellulose, and given in oral dose of 0.1 mg/kg and 1.0 mg/kg.

SMILES | Effect Max (maximum decrease of blood pressure, mean ratio) [1] [%] | Effect max (maximum decrease of blood pressure, mean ratio) ([2]; 0.1 mg/kg orally) [%] | T 1/2 (duration of half of maximum decrease of blood pressure) ([2]; 0.1 mg/kg orally) [h] | Effect max (maximum decrease of blood pressure, mean ratio) ([2]; 1.0 mg/kg orally) [%] | T 1/2 (duration of half of maximum decrease of blood pressure) ([2]; 1.0 mg/kg orally) [h]
CN1CCN([C@@H]2c3cc(C#N)ccc3OC(C)(C)[C@H]2O)C1=NC#N (relative stereo) [trans-4-(2-Cyanoimino-3-methylimidazolidin-1-yl)-3,4-dihydro-3-hydroxy-2,2-dimethyl-2H-1-benzopyran-6-carbonitrile] | 48.0 | – | – | – | –
CC1(C)Oc2ccc(C#N)cc2[C@@H](N2CCSC2=NC#N)[C@@H]1O [(3S,4R)-4-(2-Cyanoiminothiazolidin-3-yl)-3,4-dihydro-3-hydroxy-2,2-dimethyl-2H-1-benzopyran-6-carbonitrile] | – | 20.7 | 2.25 | 60.0 | 3.75
